Patent US20250129104A1, “7H-PYRROLO[2,3-D]PYRIMIDINES AND PREPARATION AND USES THEREOF” (BioSplice Therapeutics, Inc., priority 2021, published 2025)

What was measured:
[1] = target: recombinant DYRK1A kinase (Homo sapiens (Human), UniProt Q13627); assay: DYRK1A kinase assay (Ser/Thr 18 peptide Z-lyte FRET assay); assay type: biochemical; conditions: DYRK1A kinase activity; 15 μM ATP, 1 h room temperature; method text calls the value IC50
Procedure, shortened: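 FRET Z-lyte read-out (coumarin/fluorescein ratio, % phosphorylation) after 1 h development; IC50 from non-linear curve fit. Reaction: 0.25 μg/mL recombinant human DYRK1A, Ser/Thr 18 peptide 4 μM, ATP 15 μM, compound in 11-point 1:3 series from 10 μM, 1 h, room temperature, duplicate wells.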

[2] = test system: Tau phosphorylation at Thr212 (pThr212); assay: tau phosphorylation assay: phosphoTau (Thr212) AlphaLISA in HEK293T cells transfected with DYRK1A and MAPT; assay type: cell-based; conditions: HEK-293T; HEK293T cells transfected with human DYRK1A and MAPT; 18-24 h compound treatment; read-out: pTau (Thr212) EC50
Procedure: Representative compounds were screened using the assay procedure for tau phosphorylation activity described below.
HEK293T cells (ATCC, CRL3216) cultured in DMEM (Thermo Fisher Scientific, 10566024) supplemented with 10% FBS (Corning, 35-011-CV) and Penicillin/Streptomycin (Thermo Fisher Scientific, 15140163) were seeded in a 75 cm^2 flask at 8.1×10^6 cells/flask. The HEK293T cells were then transiently transfected with 5 μg DYRK1A (NM_001396) human untagged clone (OriGene, SC314641) and 2.5 μg MAPT (441 a.a. Tau gene) (NM_005910) human untagged clone (OriGene, TP313312) using Lipofectamine 3000 (Thermo Fisher Scientific, L30000015) and incubated for 20-30 hours in a humidified incubator at 37° C. and 5% CO2. Post-incubation, HEK293T cells transfected with the DYRK1A and MAPT expression vectors were harvested and seeded in BioCoat poly-D lysine coated 96-well plates (Corning, 354461) at 3×10^4 cells/well.
The above synthesized compounds were screened using the cell assay procedure to assess decreased Tau phosphorylation at Thr212 (pThr212) described below.
Each compound was dissolved in DMSO (Sigma-Aldrich, D8418-100 mL) as a 10 mM stock. 10 mM stocks were serially diluted 1:3, 10-point dose-response curve and added to the cells with a final concentration ranging from 20 μM to 1.1 nM. Cell were treated with compounds in duplicate and incubated for 18-24 hours in a humidified incubator at 37° C. and 5% CO2.
Following the overnight compound treatment, cells were lysed with 1× Alpha Surefire Ultra Lysis Buffer (Perkin Elmer, ALSU-LB-100ML) complemented with 1× Halt Phosphatase Inhibitor Cocktail (Thermo Fisher Scientific, 78427) and 1× Halt Protease Inhibitor Cocktail (Thermo Fisher Scientific, 78438). Lysates were spun down at 12,000 g for 10 min to remove any cellular debris and 5 μL of lysates were dispensed into a 384-well Opti-Plate (Perkin Elmer, 6007290) for the measurement of Tau phosphorylation in the phosphoTau (Thr212) AlphaLISA assay. Donor antibody, biotinylated HT7Tau (Thermo Fisher Scientific, MN1000B), and acceptor antibody, pThr212Tau (Thermo Fisher Scientific, 44740G) were both added to the cell lysates at a final concentration of 3 nM and incubated for 1 hour at room temperature. Following incubation of the lysates with the donor and acceptor antibodies, anti-rabbit IgG (Fc specific) AlphaLISA acceptor beads (Perkin Elmer, AL104C) were added at a 10 μg/mL final concentration and incubated for 1 hour at room temperature protected from light. Lastly, AlphaScreen streptavidin donor beads (PerkinElmer, 6760002) were added at 40 μg/mL final concentration and incubated for 1 hour at room temperature protected from light. Plates were read at […], and Em=615 nm on the EnVision Multilabel Plate Reader (Perkin Elmer). PhosphoTau (Thr212) AlphaLISA signal was used to plot, draw the curve fitting, and determine each compound's EC50 in Prism (GraphPad).

SMILES	EC50 [1] [nM]	EC50 [2] [nM]
C[C@@H](Nc1ncc2c(-c3cnc4nccn4c3)c[nH]c2n1)C1CC1 [Compound 469, (R)—N-(1-cyclopropylethyl)-5-(imidazo[1,2-a]pyrimidin-6-yl)-7H-pyrrolo [2,3-d]pyrimidin-2-amine]	7.6	246
COc1nc(CC(C)C)nc2[nH]cc(-c3cc(F)c4nc(C)n(C(C)C)c4c3)c12 [Compound 497, 5-(4-Fluoro-1-isopropyl-2-methyl-1H-benzo[d]imidazol-6-yl)-2-isobutyl-4-methoxy-7H-pyrrolo[2,3-d]pyrimidine]	9.2	433
Cc1nc2c(F)cc(-c3c[nH]c4nc(C5CC5)ncc34)cc2n1C(C)C [Compound 499, 2-Cyclopropyl-5-(4-fluoro-1-isopropyl-2-methyl-1H-benzo[d]imidazol-6-yl)-7H-pyrrolo[2,3-d]pyrimidine]	6	296
Cc1nc2c(F)cc(-c3c[nH]c4nc(C5CCC5)ncc34)cc2n1C(C)C [Compound 500, 2-Cyclobutyl-5-(4-fluoro-1-isopropyl-2-methyl-1H-benzo[d]imidazol-6-yl)-7H-pyrrolo[2,3-d]pyrimidine]	19.8	338
Cc1nc2c(F)cc(-c3c[nH]c4nc(NCC(C)(C)C)ncc34)cc2n1C(C)C [Compound 507, 5-(4-Fluoro-1-isopropyl-2-methyl-1H-benzo[d]imidazol-6-yl)-N-neopentyl-7H-pyrrolo[2,3-d]pyrimidin-2-amine]	7.2	37
Cc1nc2c(F)cc(-c3c[nH]c4nc(C5CC5)ncc34)cc2n1C1CCN(C)CC1 [Compound 544, 2-Cyclopropyl-5-(4-fluoro-2-methyl-1-(1-methylpiperidin-4-yl)-1H-benzo[d]imidazol-6-yl)-7H-pyrrolo[2,3-d]pyrimidine]	12.2	408
Cc1nc2ncc(-c3c[nH]c4nc(C5CCC5)ncc34)cc2n1C(C)C [Compound 588, 6-(2-Cyclobutyl-7H-pyrrolo[2,3-d]pyrimidin-5-yl)-1-isopropyl-2-methyl-1H-imidazo[4,5-b]pyridine]	25	1470
Cc1nc2ccc(-c3c[nH]c4nc(NCC(C)(C)F)ncc34)nc2n1C [Compound 629, 5-(2,3-Dimethyl-3H-imidazo[4,5-b]pyridin-5-yl)-N-(2-fluoro-2-methylpropyl)-7H-pyrrolo[2,3-d]pyrimidin-2-amine]	531	28
Cc1nc2ccc(-c3c[nH]c4nc(N[C@H](C)C(F)(F)F)ncc34)nc2n1CC(F)F [Compound 646, (R)-5-(3-(2,2-Difluoroethyl)-2-methyl-3H-imidazo[4,5-b]pyridin-5-yl)-N-(1,1,1-trifluoropropan-2-yl)-7H-pyrrolo[2,3-d]pyrimidin-2-amine]	5.6	6
Cc1nc2ccc(-c3c[nH]c4nc(CC(C)C)ncc34)nc2n1C(C)C [Compound 674, 5-(2-Isobutyl-7H-pyrrolo[2,3-d]pyrimidin-5-yl)-3-isopropyl-2-methyl-3H-imidazo[4,5-b]pyridine]	5.1	72
C[C@@H](Nc1ncc2c(-c3ccc4ncnn4c3)c[nH]c2n1)C1CC1 [Compound 740, (R)-5-([1,2,4]Triazolo[1,5-a]pyridin-6-yl)-N-(1-cyclopropylethyl)-7H-pyrrolo [2,3-d]pyrimidin-2-amine]	22	226
FC1(F)CC(Nc2ncc3c(-c4ccc5ncnn5c4)c[nH]c3n2)C1 [Compound 744, 5-([1,2,4]Triazolo[1,5-a]pyridin-6-yl)-N-(3,3-difluorocyclobutyl)-7H-pyrrolo [2,3-d]pyrimidin-2-amine]	6.5	213
FC1(F)CCC(Nc2ncc3c(-c4ccc5ncnn5c4)c[nH]c3n2)CC1 [Compound 746, 5-([1,2,4]Triazolo[1,5-a]pyridin-6-yl)-N-(4,4-difluorocyclohexyl)-7H-pyrrolo [2,3-d]pyrimidin-2-amine]	29.2	521
FC1(CNc2ncc3c(-c4ccc5ncnn5c4)c[nH]c3n2)CCCCC1 [Compound 748, 5-([1,2,4]Triazolo[1,5-a]pyridin-6-yl)-N-((1-fluorocyclohexyl)methyl)-7H-pyrrolo[2,3-d]pyrimidin-2-amine]	20	174
FC1(F)CCC(CNc2ncc3c(-c4ccc5ncnn5c4)c[nH]c3n2)CC1 [Compound 749, 5-([1,2,4]Triazolo[1,5-a]pyridin-6-yl)-N-((4,4-difluorocyclohexyl)methyl)-7H-pyrrolo[2,3-d]pyrimidin-2-amine]	7	80
CN1CCC(Nc2ncc3c(-c4ccc5ncnn5c4)c[nH]c3n2)CC1 [Compound 750, 5-([1,2,4]Triazolo[1,5-a]pyridin-6-yl)-N-(1-methylpiperidin-4-yl)-7H-pyrrolo [2,3-d]pyrimidin-2-amine]	26.9	67

More lines, now with the values ahead:

EC50 [1] [nM]	EC50 [2] [nM]	SMILES
22.4	815	CC(C)Nc1ncc2c(-c3ccc4ncnn4c3)c[nH]c2n1 [Compound 726, 5-([1,2,4]Triazolo[1,5-a]pyridin-6-yl)-N-isopropyl-7H-pyrrolo[2,3-d]pyrimidin-2-amine]
6.9	78	CC(C)CNc1ncc2c(-c3ccc4ncnn4c3)c[nH]c2n1 [Compound 727, 5-([1,2,4]Triazolo[1,5-a]pyridin-6-yl)-N-isobutyl-7H-pyrrolo[2,3-d]pyrimidin-2-amine]
33.6	504	FC(F)CNc1ncc2c(-c3ccc4ncnn4c3)c[nH]c2n1 [Compound 730, 5-([1,2,4]Triazolo[1,5-a]pyridin-6-yl)-N-(2,2-difluoroethyl)-7H-pyrrolo[2,3-d]pyrimidin-2-amine]
8.6	199	CC(C)(F)CNc1ncc2c(-c3ccc4ncnn4c3)c[nH]c2n1 [Compound 731, 5-([1,2,4]Triazolo[1,5-a]pyridin-6-yl)-N-(2-fluoro-2-methylpropyl)-7H-pyrrolo[2,3-d]pyrimidin-2-amine]
11.7	191	CC(F)(F)CNc1ncc2c(-c3ccc4ncnn4c3)c[nH]c2n1 [Compound 732, 5-([1,2,4]Triazolo[1,5-a]pyridin-6-yl)-N-(2,2-difluoropropyl)-7H-pyrrolo [2,3-d]pyrimidin-2-amine]
18.7	335	C[C@@H](Nc1ncc2c(-c3ccc4ncnn4c3)c[nH]c2n1)C(F)(F)F [Compound 734, (R)-5-([1,2,4]Triazolo[1,5-a]pyridin-6-yl)-N-(1,1,1-trifluoropropan-2-yl)-7H-pyrrolo[2,3-d]pyrimidin-2-amine]
32.6	265	FC1(CNc2ncc3c(-c4ccc5ncnn5c4)c[nH]c3n2)CC1 [Compound 739, 5-([1,2,4]Triazolo[1,5-a]pyridin-6-yl)-N-((1-fluorocyclopropyl)methyl)-7H-pyrrolo[2,3-d]pyrimidin-2-amine]
5.1	90	FC1(CNc2ncc3c(-c4ccc5ncnn5c4)c[nH]c3n2)CCC1 [Compound 745, 5-([1,2,4]Triazolo[1,5-a]pyridin-6-yl)-N-((1-fluorocyclobutyl)methyl)-7H-pyrrolo[2,3-d]pyrimidin-2-amine]
18	470	CC(C)CNc1ncc2c(-c3cc(F)c4ncnn4c3)c[nH]c2n1 [Compound 771, 5-(8-Fluoro-[1,2,4]triazolo[1,5-a]pyridin-6-yl)-N-isobutyl-7H-pyrrolo[2,3-d]pyrimidin-2-amine]
11.3	439	CC(C)(F)CNc1ncc2c(-c3ccn4ncnc4c3)c[nH]c2n1 [Compound 805, 5-([1,2,4]Triazolo[1,5-a]pyridin-7-yl)-N-(2-fluoro-2-methylpropyl)-7H-pyrrolo[2,3-d]pyrimidin-2-amine]
